Source: patent US8394641B2, “Method of hydrolyzing an enzymatic substrate” (Advanced Liquid Logic Inc., priority 2009, dated 2013)

Key:
α-galactosidase = target: T1, α-galactosidase (Homo sapiens, UniProt P06280); test: Fabry assay on bench, substrate hydrolysis with cyclodextrins, QC DBS extracts; assay type: biochemical; settings: for effect on hydrolysis of the 4-MU substrate in the Fabry assay: 10, 30, 100 mM tested, effect at 10 mM
T1 construct: DBS extracts were prepared from quality control (QC) dried blood spot samples; tissue CDC, Atlanta Ga; host or cells: dried blood spot extracts (pooled cord blood / leukoreduced red cells plus serum)
T1 sequence (P06280 32-429): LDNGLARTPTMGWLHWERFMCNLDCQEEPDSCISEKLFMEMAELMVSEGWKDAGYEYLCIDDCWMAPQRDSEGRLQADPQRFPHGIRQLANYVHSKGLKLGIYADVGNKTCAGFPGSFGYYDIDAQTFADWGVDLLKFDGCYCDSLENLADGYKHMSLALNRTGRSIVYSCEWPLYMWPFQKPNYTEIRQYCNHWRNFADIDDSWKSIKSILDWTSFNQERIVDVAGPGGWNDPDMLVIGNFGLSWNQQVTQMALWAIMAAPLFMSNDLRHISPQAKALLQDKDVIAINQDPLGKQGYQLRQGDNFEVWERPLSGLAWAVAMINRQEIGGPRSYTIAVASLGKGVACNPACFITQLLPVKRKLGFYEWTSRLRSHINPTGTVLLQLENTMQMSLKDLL
Protocol: (§1) To evaluate the efficacy of cyclodextrins in enhancing the hydrolysis of enzymatic substrates (4-MU substrates) used in NBS assays, DBS extracts were prepared from quality control (QC) dried blood spot samples (i.e., base pool (BP), low (L), medium (M) and high (H) activity samples). The QC samples were obtained from CDC, Atlanta Ga. The base pool (BP) QC sample was prepared from a pool of leukoreduced human red blood cells that was adjusted with serum to a hematocrit of 50%. The High (H) activity QC sample was prepared from pooled cord blood that was adjusted with serum to a hematocrit of 50%. The medium (M) activity QC sample was prepared by using 50% base pool (BP) and 50% high (H) activity sample. The low (L) activity QC sample was prepared by using 95% base pool (BP) and 5% high (H) activity sample. The BP sample is used as a control for hydrolysis non-specific to white blood cell lysosomal enzymes. The DBS extracts were analyzed using on-bench assay protocols for Fabry, Gaucher, Krabbe, and Pompe diseases. For each assay, on-chip reagent formulations were scaled up to bench volumes. Hydroxypropyl-β-cyclodextrin or methyl-β-cyclodextrin reagent stocks (300 mM) were prepared in appropriate assay buffers. For each reaction, 10 μL of the appropriate substrate was mixed with 10 μL of DBS extract. After an incubation period (20 hrs at 37° C.), 50 μL of stop buffer (0.2 M NaCO3, pH 10.1) was added to the reaction. Fluorescence was read at 360/460 nm at a gain of 75. For each assay, QC samples (BP, L, M and H) were analyzed in duplicate.
FIGS. 20A and 20B show bar graphs 2000 and 2050 of the effect of hydroxypropyl-β-cyclodextrin and methyl-β-cyclodextrin, respectively, on substrate hydrolysis in a Fabry assay. The 4-MU substrate in the Fabry assay was β-D-galactopyranoside. The concentrations of β-cyclodextrins in the reaction mixture (substrate+DBS extract) were 10 mM, 30 mM and 100 mM.
To further evaluate the efficacy of lower concentrations of cyclodextrins in enhancing the hydrolysis of 4-MU substrates, Fabry and Gaucher assays were repeated using cyclodextrins concentrations ranging from 1 mM to 25 mM. FIGS. 22A and 22B show bar graphs 2200 and 2250, respectively, of the effect of lower concentrations of hydroxypropyl-β-cyclodextrin and methyl-β-cyclodextrin, respectively, on substrate hydrolysis in a Fabry assay. The 4-MU substrate in the Fabry assay was β-D-galactopyranoside. The concentrations of β-cyclodextrins in the reaction mixture (substrate+DBS extract) were 1, 5, 10, 15, 20, and 25 mM. […] The preferred concentration of methyl-β-cyclodextrin is from about 1 mM to about 20 mM, or from about 5 mM to about 15 mM, or from about 7 mM to about 13 mM, or from about 9 mM to about 11 mM, or from about 9.5 mM to about 11.5 mM.

Krabbe assay = target: T2, Krabbe assay (Homo sapiens, UniProt P54803); test: Krabbe assay on bench, substrate hydrolysis with cyclodextrins, QC DBS extracts; assay type: biochemical; settings: data not shown
T2 construct: DBS extracts were prepared from quality control (QC) dried blood spot samples; tissue CDC, Atlanta Ga; host or cells: dried blood spot extracts (pooled cord blood / leukoreduced red cells plus serum)
T2 sequence (P54803 43-685): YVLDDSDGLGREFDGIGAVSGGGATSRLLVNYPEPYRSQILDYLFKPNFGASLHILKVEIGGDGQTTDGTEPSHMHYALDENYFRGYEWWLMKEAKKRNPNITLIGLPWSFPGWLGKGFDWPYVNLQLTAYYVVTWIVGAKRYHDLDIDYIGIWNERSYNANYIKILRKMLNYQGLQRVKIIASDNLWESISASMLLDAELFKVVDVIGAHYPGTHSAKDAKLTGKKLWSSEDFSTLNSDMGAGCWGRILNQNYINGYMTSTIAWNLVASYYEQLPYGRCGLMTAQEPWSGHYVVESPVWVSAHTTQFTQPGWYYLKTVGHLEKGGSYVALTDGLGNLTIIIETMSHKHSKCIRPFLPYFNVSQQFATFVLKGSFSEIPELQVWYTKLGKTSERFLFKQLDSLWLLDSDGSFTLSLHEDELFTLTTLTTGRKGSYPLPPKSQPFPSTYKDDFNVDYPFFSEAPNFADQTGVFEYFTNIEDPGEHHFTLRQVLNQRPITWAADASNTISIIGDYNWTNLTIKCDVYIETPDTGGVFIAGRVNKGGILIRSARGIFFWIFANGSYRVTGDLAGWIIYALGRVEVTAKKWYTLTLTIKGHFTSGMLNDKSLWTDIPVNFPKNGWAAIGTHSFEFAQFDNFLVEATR
Protocol: as §1, with “For each reaction, 10 μL of the appropriate substrate was mixed with 10 μL of DBS extract. After an incubation period (20 hrs at 37° C.), 50 μL of stop buffer (0.2 M NaCO3, pH 10.1) was added to the reaction.” left out, “duplicate. […]” for “duplicate.”

| effect on substrate hydrolysis in a Fabry assay, lower concentrations (α-galactosidase; 1, 5, 10, 15, 20, 25 mM) | effect on hydrolysis of the 4-MU substrate in the Fabry assay (α-galactosidase; 20 hrs at 37° C.) | effect on substrate hydrolysis in a Krabbe assay (Krabbe assay) | increase of the QC-H signal in the Fabry assay (α-galactosidase; 10 mM, 20 hrs at 37° C.) [%] | Substance |
| --- | --- | --- | --- | --- |
| less effective | less effective | inhibitory | – | hydroxypropyl-β-cyclodextrin |
| – | increase the hydrolysis | inhibitory | 37 | methyl-β-cyclodextrin |
